According to US11226337B2, “Chemoproteomic profiling of protein electrophilic and oxidative post-translational modifications” (Zenagem, LLC, priority 2017, dated 2022):

Legend:
Experiment in all cases: gel-based RP-ABPP of transfected HEK293T cells
Type in all cases: cell-based
Conditions in all cases: transfected HEK293T cells vs mock
[1] = biological target: T1, FTO (Homo sapiens, UniProt Q9C0B1)
T1 construct: Full-length genes encoding three probe 1- and one probe 2-targeted proteins were amplified from a cDNA library; expressed in transfected cells; host or cells: HEK293T
T1 sequence (Q9C0B1 whole entry): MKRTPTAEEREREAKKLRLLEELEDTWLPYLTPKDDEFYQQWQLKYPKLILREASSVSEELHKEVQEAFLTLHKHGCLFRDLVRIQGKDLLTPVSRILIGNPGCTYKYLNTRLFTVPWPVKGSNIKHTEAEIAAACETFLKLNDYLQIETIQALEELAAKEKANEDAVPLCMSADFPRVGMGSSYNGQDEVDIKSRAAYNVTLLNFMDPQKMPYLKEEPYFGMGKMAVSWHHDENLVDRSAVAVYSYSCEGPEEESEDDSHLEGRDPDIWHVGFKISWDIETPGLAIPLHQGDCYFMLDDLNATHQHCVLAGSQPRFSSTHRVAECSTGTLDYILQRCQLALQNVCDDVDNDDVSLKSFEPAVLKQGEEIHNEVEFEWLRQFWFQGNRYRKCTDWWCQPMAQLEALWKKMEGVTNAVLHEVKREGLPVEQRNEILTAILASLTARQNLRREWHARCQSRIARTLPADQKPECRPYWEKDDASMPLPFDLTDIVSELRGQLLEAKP
Experimental: (§1) Soluble proteomes from treated cells were diluted to 1 mg/mL. To each sample (50 μL), a freshly prepared “click” or CuAAC reagent mixture (6 μL) containing 0.1 mM tris(benzyltriazolylmethyl)amine (TBTA) (3 μL/sample, 1.7 mM in 4:1 DMSO:t-BuOH), 1 mM CuSO4 (1 μL/sample, 50 mM in H2O), 25 μM azide-rhodamine (1 μL/sample, 1.25 mM in DMSO), and freshly prepared 1 mM tris(2-carboxyethyl)phosphine (TCEP) (1 μL/sample, 50 mM in PBS or H2O) was added to conjugate the fluorophore to probe-labelled proteins. TBTA was purchased from TCI and azide-rhodamine was synthesized as previously described^64. Upon addition of the click mixture, each reaction was immediately mixed by vortexing and then allowed to react at ambient temperature for 1 hour before quenching the reactions with SDS loading buffer (4× stock, 17 μL). Proteins (˜25 μg total protein loaded per gel lane) were resolved by SDS-PAGE (10% acrylamide) and visualized by in-gel fluorescence scanning on a Hitachi FMBIO-II or BioRad ChemiDoc MP flatbed fluorescence scanner.
(§2) Full-length genes encoding three probe 1- and one probe 2-targeted proteins were amplified from a cDNA library derived from the same low-passage HEK293T cells used for proteomic profiling. The library was generated using Ribozol RNA extraction (Amresco) and iScript reverse transcription (Bio-rad) supermix reagents. The gene products were cloned into mammalian expression vectors containing N- or C-terminal FLAG affinity tags. The gene for S-adenosyl-L-methionine decarboxylase (AMD1 or AdoMetDC) was cloned into pFLAG-CMV-sport6 (N-terminal tag) at NotI and SalI restriction sites. AMD1, Secernin-3 (SCRN3) and fat mass- and obesity-associated Fe(II)- and 20G-dependent dioxygenase (FTO) were cloned into pRK5 (C-terminal tag) at SalI and NotI restriction sites. Kelch-like ECH-associated protein-1 (Keapl) (N-terminal tag), and empty plasmids of pRK5 were gifts. Full sequences of the genes were confirmed. The proteins expressed via transient transfection in HEK293T cells contain an additional 15 amino acids appended to their N-terminal methionine residue or C-terminus (MDYKD4KLKACGR (SEQ ID NO: 43) and A3G4DYKD4K (SEQ ID NO: 44), respectively). The DYKD4K (SEQ ID NO: 42) appendage in each contains the classic FLAG epitope that permits detection by western blotting or purification by affinity chromatography. Mutants of SCRN3 were generated using QuikChange site-directed mutagenesis with primers containing the desired mutations and their respective compliments. The gene for the deletion mutant of SCRN3 with the sequence MetlCys6-SCRN3 instead of Met1 Glu2Pro3Phe4Ser5Cys6-SCRN3 (SEQ ID NO: 45) was amplified from the wild-type C-terminal FLAG-tagged construct and cloned into the same vector.
(§3) HEK293T cells were grown to ˜40% confluence under standard growth conditions passaged in the appropriate media before adding the appropriate expression vector (control cells (‘mock’) received an equal amount of the appropriate empty vector) and polyethyleneimine (PEI) ‘MAX’ (MW 40,000, Polysciences Inc.) as a transfection reagent under standard transfection conditions (3:1 vector/PEI (w/w) ratio). Cells were incubated for ˜48 h before labelling in situ. Proteomes were processed for gel- and MS-based experiments as described above and in Example 2.
(§4) After scanning fluorescence, that same gel was transferred to nitrocellulose membrane in Towbin buffer, the membrane was blocked for ˜1 hour at ambient temperature with 5% nonfat dry milk (w/v) in Tris-buffered saline with Tween 20 (TBST) and incubated with primary antibodies in the same solution overnight at 4° C. The antibodies included anti-FLAG (1:2500, F1804, Sigma), anti-AdoMetDC (1:500, sc-160951, Santa Cruz Biotechnology) and anti-His6 (1:1000, ab18184, Abcam). The blots were washed (3×5 min, TBST), incubated with secondary antibodies (1:10,000, IRDye 800CW, LICOR) in milk for 1 hour at ambient temperature, washed again (3×5 min, TBST), and visualized on a LICOR Odyssey Scanner.

[2] = biological target: T2, SCRN3 (Homo sapiens, UniProt Q0VDG4)
T2 construct: Full-length genes encoding three probe 1- and one probe 2-targeted proteins were amplified from a cDNA library; expressed in transfected cells; host or cells: HEK293T
T2 sequence (Q0VDG4 6-424): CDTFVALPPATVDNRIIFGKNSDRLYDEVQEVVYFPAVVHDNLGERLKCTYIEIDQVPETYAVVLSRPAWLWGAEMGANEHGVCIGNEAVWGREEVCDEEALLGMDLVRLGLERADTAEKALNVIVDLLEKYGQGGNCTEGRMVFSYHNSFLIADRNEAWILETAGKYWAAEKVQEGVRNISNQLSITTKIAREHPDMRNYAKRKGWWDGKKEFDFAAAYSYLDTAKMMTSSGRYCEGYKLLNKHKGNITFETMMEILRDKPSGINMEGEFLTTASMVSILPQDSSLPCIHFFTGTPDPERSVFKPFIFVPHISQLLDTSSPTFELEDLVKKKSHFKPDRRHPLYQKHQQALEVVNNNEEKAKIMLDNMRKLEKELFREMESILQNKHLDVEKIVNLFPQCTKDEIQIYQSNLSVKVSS
Experimental: as §1, §2, §3, §4

[3] = biological target: T3, KEAP1 (Homo sapiens, UniProt Q14145)
T3 construct: Full-length genes encoding three probe 1- and one probe 2-targeted proteins were amplified from a cDNA library; expressed in transfected cells; host or cells: HEK293T
T3 sequence (Q14145 whole entry): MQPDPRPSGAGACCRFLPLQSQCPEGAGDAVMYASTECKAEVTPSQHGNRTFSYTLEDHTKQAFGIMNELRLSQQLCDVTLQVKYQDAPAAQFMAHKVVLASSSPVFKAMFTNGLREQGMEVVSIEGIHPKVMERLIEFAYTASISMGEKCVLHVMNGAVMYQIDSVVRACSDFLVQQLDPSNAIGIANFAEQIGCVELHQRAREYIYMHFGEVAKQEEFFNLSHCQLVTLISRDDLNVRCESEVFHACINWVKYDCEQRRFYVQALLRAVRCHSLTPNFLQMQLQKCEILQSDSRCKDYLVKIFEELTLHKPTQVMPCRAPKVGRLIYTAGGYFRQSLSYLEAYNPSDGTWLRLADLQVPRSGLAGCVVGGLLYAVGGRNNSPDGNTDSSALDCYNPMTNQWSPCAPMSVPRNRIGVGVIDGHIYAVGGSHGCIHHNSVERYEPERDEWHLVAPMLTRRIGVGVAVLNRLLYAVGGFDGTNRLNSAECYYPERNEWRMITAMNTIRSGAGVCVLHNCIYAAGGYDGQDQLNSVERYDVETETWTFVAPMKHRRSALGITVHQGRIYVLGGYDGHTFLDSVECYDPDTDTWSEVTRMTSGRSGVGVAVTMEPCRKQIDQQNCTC
Experimental: as §1, §2, §3, §4

SMILES: C#CCNN.Cl [probe 1, prop-2-yn-1-ylhydrazine hydrochloride]
- probe labeling of recombinant protein, in-gel fluorescence [1]: selective reactivity with the aryl probe 2 over the alkyl probe 1
- probe labeling of recombinant protein, in-gel fluorescence [2]: reacted with both probes 1 and 2
- probe labeling of recombinant protein, in-gel fluorescence [3]: reacted with both probes 1 and 2

SMILES: C#CCCNC(=O)c1ccc(NN)cc1.Cl [probe 2, N-(but-3-yn-1-yl)-4-hydrazinylbenzamide hydrochloride]
- probe labeling of recombinant protein, in-gel fluorescence [1]: preferentially targeted by probe 2
- probe labeling of recombinant protein, in-gel fluorescence [2]: reacted with both probes 1 and 2
- probe labeling of recombinant protein, in-gel fluorescence [3]: reacted with both probes 1 and 2
